Experiments:
SMARCA4 = target: T1, SMARCA4 (Homo sapiens, UniProt P51532); assay: SMARCA4 HiBiT degradation assay in HeLa cells; type: cell-based; details: 18 hours; for Dmax: HeLa
T1 construct: SMARCA4-HiBiT knock-in Hela monoclonal cell (CS3023226) were purchased from Promega; host or cells: HeLa (CRISPR HiBiT knock-in monoclonal line, heterozygous)
Method: (§1) Example A. SMARCA2 HiBiT and SMARCA4 HiBiT Degradation Assay
(§2) Preparation of SMARCA2/4-HiBiT Knock-In Cells
(§3) HiBiT peptide knock-in of SMARCA2 in LgBiT expressing HEK293T cells was performed by CRISPR-mediated tagging system as described Promega. The homozygous HiBiT knock-in on c-terminus SMARCA2 was confirmed by sanger sequence. SMARCA2-HiBiT knock-in Hela monoclonal cell (CS302366) and SMARCA4-HiBiT knock-in Hela monoclonal cell (CS3023226) were purchased from Promega. The heterozygous HiBiT-knock-in was confirmed by sanger sequence in both SMARCA2-HiBiT and SMARCA4-HiBiT monoclonal cells.
(§4) SMARCA2 HiBiT and SMARCA4 HiBiT Degradation Assay in HeLa Cells
(§5) Compounds were dissolved in DMSO to make 10 mM stock and 3-fold series dilutions were further conducted keeping the highest concentration 10 μM. NCIH1693 and NCIH520 cells were maintained in PRMI 1640 medium (Corning Cellgro, Catalog #:10-040-CV) supplemented with 10% v/v FBS (GE Healthcare, Catalog #: SH30910.03) by splitting 1:3 twice a week.
(§6) Dispense 10 ul aliquot of prepared Hela-SMARCA2-HiBiT or Hela-SMARCA4-HiBiT cells (1:1 ratio of cells:Trypan Blue (#1450013, Bio-Rad)) onto cell counting slide (#145-0011, Bio-Rad) and obtain cell density and cell viability using cell counter (TC20, Bio-Rad). Remove appropriate volume of resuspended cells from culture flask to accommodate 2500 cells/well @ 20 μL/well. Transfer Hela-HiBiT cells to 50 mL conical (#430290, Corning). Spin down at 1000 rpm for 5 min using tabletop centrifuge (SPINCHRON 15, Beckman). Discard supernatant and resuspend cell pellet in modified EMEM (#30-2003, ATCC) cell culture media containing 10% FBS (F2422-500ML, Sigma), and 1X Penicillin/Streptomycin (200 g/L) (30-002-CI, Corning) to a cell density of 125,000 cells/mL. Dispense 20 μL of resuspended Hela-HiBit cells per well in 384-well TC treated plate (#12-565-343, Thermo Scientific) using standard cassette (#50950372, Thermo Scientific) on Multidrop Combi (#5840310, Thermo Scientific) inside laminar flow cabinet. Dispense test compounds onto plates using digital liquid dispenser (D300E, Tecan). Incubate plates in humidified tissue culture incubator @37° C. for 18 hours. Add 20 μL of prepared Nano-Glo® HiBiT Lytic detection buffer (N3050, Promega) to each well of 384-well plate using small tube cassette (#24073295, Thermo Scientific) on Multidrop Combi, incubate @ RT for 30-60 min. Read plates on microplate reader (Envision 2105, PerkinElmer) using 384 well Ultra-Sensitive luminescence mode. Raw data files and compound information reports are swept into centralized data lake and deconvoluted using automated scripts designed by TetraScience, Inc. Data analysis, curve-fitting and reporting done in Dotmatics Informatics Suite using Screening Ultra module.

SMARCA2 = target: T2, SMARCA2 (Homo sapiens, UniProt P51531); assay: SMARCA2 HiBiT degradation assay in HeLa cells; type: cell-based; details: 18 hours; for DC50: read-out: SMARCA2 IC50; for Dmax: HeLa
T2 construct: SMARCA2-HiBiT knock-in Hela monoclonal cell (CS302366); host or cells: HeLa (CRISPR HiBiT knock-in monoclonal line, heterozygous)
T2 sequence (P51531 whole entry): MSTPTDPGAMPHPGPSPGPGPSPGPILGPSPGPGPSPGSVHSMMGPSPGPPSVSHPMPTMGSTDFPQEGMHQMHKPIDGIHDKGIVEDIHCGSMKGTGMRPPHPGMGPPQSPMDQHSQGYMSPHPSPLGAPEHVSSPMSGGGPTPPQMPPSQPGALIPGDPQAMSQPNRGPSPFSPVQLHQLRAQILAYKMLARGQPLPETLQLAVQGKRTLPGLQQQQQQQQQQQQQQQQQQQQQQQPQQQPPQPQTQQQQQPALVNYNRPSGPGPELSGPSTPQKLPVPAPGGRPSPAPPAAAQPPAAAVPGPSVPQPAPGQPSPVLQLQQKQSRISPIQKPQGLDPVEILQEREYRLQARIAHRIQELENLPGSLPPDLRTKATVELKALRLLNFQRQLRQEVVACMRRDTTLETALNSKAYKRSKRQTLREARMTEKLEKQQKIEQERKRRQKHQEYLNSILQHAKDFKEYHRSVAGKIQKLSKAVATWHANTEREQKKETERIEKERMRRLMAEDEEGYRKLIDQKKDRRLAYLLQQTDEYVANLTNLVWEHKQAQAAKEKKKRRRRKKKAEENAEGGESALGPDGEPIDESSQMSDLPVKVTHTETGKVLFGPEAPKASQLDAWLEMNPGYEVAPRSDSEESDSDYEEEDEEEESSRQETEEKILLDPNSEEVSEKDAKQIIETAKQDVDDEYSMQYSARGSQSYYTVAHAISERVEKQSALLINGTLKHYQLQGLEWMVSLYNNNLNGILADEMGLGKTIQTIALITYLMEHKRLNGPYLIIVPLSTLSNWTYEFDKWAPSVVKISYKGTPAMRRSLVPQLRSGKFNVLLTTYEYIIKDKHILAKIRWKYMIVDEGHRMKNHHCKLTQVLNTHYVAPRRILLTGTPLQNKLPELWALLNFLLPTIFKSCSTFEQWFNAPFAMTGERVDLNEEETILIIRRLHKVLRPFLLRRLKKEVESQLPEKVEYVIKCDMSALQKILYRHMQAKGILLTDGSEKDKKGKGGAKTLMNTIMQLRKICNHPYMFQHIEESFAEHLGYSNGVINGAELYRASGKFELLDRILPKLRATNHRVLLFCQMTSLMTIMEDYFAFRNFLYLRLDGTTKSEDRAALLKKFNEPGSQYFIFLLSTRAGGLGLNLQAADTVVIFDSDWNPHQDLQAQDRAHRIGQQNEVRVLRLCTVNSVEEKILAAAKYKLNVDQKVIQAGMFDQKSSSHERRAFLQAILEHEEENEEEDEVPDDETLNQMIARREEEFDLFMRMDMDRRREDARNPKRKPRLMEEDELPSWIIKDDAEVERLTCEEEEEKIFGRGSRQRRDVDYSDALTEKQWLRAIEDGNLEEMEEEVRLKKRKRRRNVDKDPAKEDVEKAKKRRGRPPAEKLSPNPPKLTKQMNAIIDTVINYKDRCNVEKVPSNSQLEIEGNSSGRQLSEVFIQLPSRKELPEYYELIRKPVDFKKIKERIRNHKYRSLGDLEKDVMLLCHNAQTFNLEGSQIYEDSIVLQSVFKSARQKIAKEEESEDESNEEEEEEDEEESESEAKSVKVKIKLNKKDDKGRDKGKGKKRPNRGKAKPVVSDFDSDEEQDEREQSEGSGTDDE
Method: as §1, §2, §3, §4, §5, §6

T1 sequence (P51532 whole entry): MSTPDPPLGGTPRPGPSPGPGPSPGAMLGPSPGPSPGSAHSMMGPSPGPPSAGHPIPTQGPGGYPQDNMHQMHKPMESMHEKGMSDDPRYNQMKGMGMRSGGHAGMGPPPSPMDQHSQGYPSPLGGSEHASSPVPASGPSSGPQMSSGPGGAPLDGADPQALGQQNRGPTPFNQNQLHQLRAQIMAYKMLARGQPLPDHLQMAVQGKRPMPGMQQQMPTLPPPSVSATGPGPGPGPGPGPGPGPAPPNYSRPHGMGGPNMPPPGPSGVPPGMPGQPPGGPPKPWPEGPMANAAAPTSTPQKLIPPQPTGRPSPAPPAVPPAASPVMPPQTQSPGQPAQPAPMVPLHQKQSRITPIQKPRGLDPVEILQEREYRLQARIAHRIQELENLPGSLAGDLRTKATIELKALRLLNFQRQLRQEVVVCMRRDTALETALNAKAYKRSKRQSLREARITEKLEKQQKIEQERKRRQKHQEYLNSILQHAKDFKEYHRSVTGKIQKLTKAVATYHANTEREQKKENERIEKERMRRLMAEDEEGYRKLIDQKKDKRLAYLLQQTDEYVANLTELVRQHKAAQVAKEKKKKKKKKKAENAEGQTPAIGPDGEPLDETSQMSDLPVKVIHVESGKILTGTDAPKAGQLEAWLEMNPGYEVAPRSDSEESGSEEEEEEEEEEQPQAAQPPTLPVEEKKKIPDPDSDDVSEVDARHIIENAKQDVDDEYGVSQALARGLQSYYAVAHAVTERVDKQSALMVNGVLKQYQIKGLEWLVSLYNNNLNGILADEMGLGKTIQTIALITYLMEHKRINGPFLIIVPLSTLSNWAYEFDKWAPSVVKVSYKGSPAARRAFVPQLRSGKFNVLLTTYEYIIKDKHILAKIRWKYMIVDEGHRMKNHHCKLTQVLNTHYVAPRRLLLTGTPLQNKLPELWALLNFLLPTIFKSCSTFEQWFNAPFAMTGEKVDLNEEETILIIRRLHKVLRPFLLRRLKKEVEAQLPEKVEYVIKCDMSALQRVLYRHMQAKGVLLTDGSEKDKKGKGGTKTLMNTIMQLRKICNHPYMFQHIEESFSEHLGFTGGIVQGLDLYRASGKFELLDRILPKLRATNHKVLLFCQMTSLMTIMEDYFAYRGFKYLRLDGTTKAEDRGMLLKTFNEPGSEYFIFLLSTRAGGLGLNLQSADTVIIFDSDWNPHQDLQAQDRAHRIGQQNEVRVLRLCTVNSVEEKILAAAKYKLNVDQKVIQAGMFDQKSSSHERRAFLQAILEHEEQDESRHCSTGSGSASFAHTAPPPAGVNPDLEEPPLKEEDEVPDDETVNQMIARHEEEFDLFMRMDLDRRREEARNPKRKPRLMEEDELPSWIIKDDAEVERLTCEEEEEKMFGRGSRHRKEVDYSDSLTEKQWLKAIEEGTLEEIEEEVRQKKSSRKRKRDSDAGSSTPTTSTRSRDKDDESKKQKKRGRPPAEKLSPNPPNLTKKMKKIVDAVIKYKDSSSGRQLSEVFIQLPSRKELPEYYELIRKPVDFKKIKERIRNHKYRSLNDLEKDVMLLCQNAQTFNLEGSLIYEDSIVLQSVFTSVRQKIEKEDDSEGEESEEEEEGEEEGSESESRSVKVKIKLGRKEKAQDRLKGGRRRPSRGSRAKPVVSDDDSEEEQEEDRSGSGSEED

Row | SMILES | DC50 (SMARCA4) | Dmax (SMARCA4) | DC50 (SMARCA2) | Dmax (SMARCA2) | SMARCA4 DMax % (SMARCA4) | SMARCA2 DMax % (SMARCA2)
1 | CCC12CNc3nnc(-c4cccc(F)c4O)cc3N1CCN(C(=O)N1[C@H](C)CN(CC3CCN(c4ccc5c(c4)C(=O)N(C4CCC(=O)NC4=O)C5)CC3)C[C@@H]1C)C2 (single isomer, unassigned) [Example 62] | < 100 nM | – | < 100 nM | – | A (A=Dmax>75%) | A (A=Dmax>75%)
2 | C[C@@H]1CN(CC2CCN(c3ccc4c(c3)C(=O)N(C3CCC(=O)NC3=O)C4)CC2)C[C@@H](C)N1C(=O)N1CCN2c3cc(-c4cccc(Cl)c4O)nnc3NCC2(C)C1 (single isomer, unassigned) [Example 63] | < 100 nM | – | < 100 nM | – | – | –
3 | CCC12CNc3nnc(-c4cccc(F)c4O)cc3N1CCN(C(=O)N1CCN(CC3CCN(c4ccc5c(c4)C(=O)N([C@H]4CCC(=O)NC4=O)C5)CC3)CC1(C)C)C2 (single isomer, unassigned) [Example 74] | < 100 nM | 50 to 75% | < 100 nM | > 75% | – | –
4 | CCC12CNc3nnc(-c4cccc(Cl)c4O)cc3N1CCN(C(=O)N1[C@H](C)CN(CC3CCN(c4ccc5c(c4)C(=O)N([C@H]4CCC(=O)NC4=O)C5)CC3)C[C@H]1C)C2 (single isomer, unassigned) [Example 75] | < 100 nM | 50 to 75% | < 100 nM | > 75% | – | –
5 | CCC12CNc3nnc(-c4cccc(Cl)c4O)cc3N1CCN(C(=O)N1CCN(CC3CCN(c4ccc5c(c4)C(=O)N([C@H]4CCC(=O)NC4=O)C5)CC3)CC1(C)C)C2 (single isomer, unassigned) [Example 76] | < 100 nM | 50 to 75% | < 100 nM | > 75% | – | –
6 | CCC12CNc3nnc(-c4cccc(Cl)c4O)cc3N1CCN(C(=O)N1C[C@H](C)N(CC3CCN(c4ccc5c(c4)C(=O)N([C@H]4CCC(=O)NC4=O)C5)CC3)C[C@H]1C)C2 (single isomer, unassigned) [Example 77] | < 100 nM | 50 to 75% | < 100 nM | > 75% | – | –
7 | CCC12CNc3nnc(-c4cccc(F)c4O)cc3N1CCN(C(=O)N1C[C@H](C)N(CC3CCN(c4ccc5c(c4)C(=O)N([C@H]4CCC(=O)NC4=O)C5)CC3)C[C@H]1C)C2 (single isomer, unassigned) [Example 78] | < 100 nM | 50 to 75% | < 100 nM | > 75% | – | –
8 | CCC12CNc3nnc(-c4cccc(F)c4O)cc3N1CCN(C(=O)N1[C@H](C)CN(CC3CCN(c4ccc5c(c4)C(=O)N(C4CCC(=O)NC4=O)C5)CC3)C[C@H]1C)C2 (single isomer, unassigned) [Example 83] | < 100 nM | – | < 100 nM | – | B (B=50%<Dmax≤75%) | A (A=Dmax>75%)
9 | CCC12CNc3nnc(-c4cccc(F)c4O)cc3N1CCN(C(=O)N1[C@H](C)CN(CC3CCN(c4ccc5c(c4)C(=O)N(C4CCC(=O)NC4=O)C5)CC3)C[C@@H]1C)C2 (single isomer, unassigned) [Example 86] | < 100 nM | – | < 100 nM | – | A (A=Dmax>75%) | A (A=Dmax>75%)
10 | CCC12CNc3nnc(-c4cc(F)cc(F)c4O)cc3N1CCN(C(=O)N1[C@H](C)CN(CC3CCN(c4ccc5c(c4)C(=O)N(C4CCC(=O)NC4=O)C5)CC3)C[C@@H]1C)C2 (single isomer, unassigned) [Example 87] | < 100 nM | – | < 100 nM | – | – | –
11 | CCC12CNc3nnc(-c4cccc(F)c4O)cc3N1CCN(C(=O)N1[C@H](C)CN(CC3CCN(c4ccc5c(c4)C(=O)N(C4CCC(=O)NC4=O)C5)CC3)C[C@@H]1C)C2 (single isomer, unassigned) [Example 88] | < 100 nM | – | < 100 nM | – | A (A=Dmax>75%) | A (A=Dmax>75%)

Continued, values first:

Row | DC50 (SMARCA4) | Dmax (SMARCA4) | DC50 (SMARCA2) | Dmax (SMARCA2) | SMARCA4 DMax % (SMARCA4) | SMARCA2 DMax % (SMARCA2) | SMILES
12 | < 100 nM | > 75% | < 100 nM | > 75% | – | – | CCC12CNc3nnc(-c4cccc(F)c4O)cc3N1CCN(C(=O)N1[C@H](C)CN(CC3CCN(c4ccc5c(c4)C(=O)N(C4CCC(=O)NC4=O)C5)CC3)C[C@@H]1C)C2 (single isomer, unassigned) [Example 60]
13 | < 100 nM | – | < 100 nM | – | – | – | CCC12CNc3nnc(-c4cc(F)cc(F)c4O)cc3N1CCN(C(=O)N1[C@H](C)CN(CC3CCN(c4ccc5c(c4)C(=O)N(C4CCC(=O)NC4=O)C5)CC3)C[C@@H]1C)C2 (single isomer, unassigned) [Example 61]
14 | < 100 nM | – | < 100 nM | – | – | – | C[C@@H]1CN(CC2CCN(c3ccc4c(c3)C(=O)N(C3CCC(=O)NC3=O)C4)CC2)C[C@H](C)N1C(=O)N1CCN2c3cc(-c4cc(F)cc(F)c4O)nnc3NCC2(C)C1 (single isomer, unassigned) [Example 64]
15 | > 1000 nM | < 50% | < 100 nM | > 75% | – | – | CCC12CNc3nnc(-c4cccc(F)c4O)cc3N1CCN(C(=O)N1CCN(CC3CCN(c4ccc5c(c4)C(=O)N(C4CCC(=O)NC4=O)C5)CC3)CC1(C)C)C2 (single isomer, unassigned) [Example 79, 3-(6-(4-((4-(6a-ethyl-2-(3-fluoro-2-hydroxyphenyl)-6,6a,7,8,9,10-hexahydro-5H-pyrazino-[1′,2′:4,5]pyrazino[2,3-c]pyridazine-8-carbonyl)-3,3-dimethylpiperazin-1-yl)methyl)-piperidin-1-yl)-1-oxoisoindolin-2-yl)piperidine-2,6-dione]
16 | < 100 nM | – | < 100 nM | – | B (B=50%<Dmax≤75%) | A (A=Dmax>75%) | CCC12CNc3nnc(-c4cccc(F)c4O)cc3N1CCN(C(=O)N1CCN(CC3CCN(c4ccc5c(c4)C(=O)N(C4CCC(=O)NC4=O)C5)CC3)CC1(C)C)C2 (single isomer, unassigned) [Example 80, 3-(6-(4-((4-(6a-ethyl-2-(3-fluoro-2-hydroxyphenyl)-6,6a,7,8,9,10-hexahydro-5H-pyrazino-[1′,2′:4,5]pyrazino[2,3-c]pyridazine-8-carbonyl)-3,3-dimethylpiperazin-1-yl)methyl)-piperidin-1-yl)-1-oxoisoindolin-2-yl)piperidine-2,6-dione]
17 | 100 to 1000 nM | < 50% | < 100 nM | > 75% | – | – | CCC12CNc3nnc(-c4cccc(F)c4O)cc3N1CCN(C(=O)N1[C@@H](C)CN(CC3CCN(c4ccc5c(c4)C(=O)N(C4CCC(=O)NC4=O)C5)CC3)C[C@@H]1C)C2 (single isomer, unassigned) [Example 81]
18 | < 100 nM | – | < 100 nM | > 75% | A (A=Dmax>75%) | – | CCC12CNc3nnc(-c4cccc(F)c4O)cc3N1CCN(C(=O)N1[C@H](C)CN(CC3CCN(c4ccc5c(c4)C(=O)N(C4CCC(=O)NC4=O)C5)CC3)C[C@H]1C)C2 (single isomer, unassigned) [Example 82]
19 | < 100 nM | 50 to 75% | < 100 nM | > 75% | – | – | CCC12CNc3nnc(-c4cccc(F)c4O)cc3N1CCN(C(=O)N1C[C@H](C)N(CC3CCN(c4ccc5c(c4)C(=O)N(C4CCC(=O)NC4=O)C5)CC3)C[C@H]1C)C2 (single isomer, unassigned) [Example 84]
20 | < 100 nM | – | < 100 nM | – | – | – | CCC12CNc3nnc(-c4cc(F)cc(F)c4O)cc3N1CCN(C(=O)N1[C@H](C)CN(CC3CCN(c4ccc5c(c4)C(=O)N(C4CCC(=O)NC4=O)C5)CC3)C[C@@H]1C)C2 (single isomer, unassigned) [Example 85]
